Experiments:
[1] = Pour point test (ASTM D97); assay type: physicochemical
Protocol: C) Pour Point Test: This test is carried out according to the protocol of ASTM Test D97.

[2] = Cleaning of cross-linked petroleum grease (1-octadecene soil); conditions: for Arbitrary Gray Value: 1% by weight in water, cross-linked 1-octadecene soil
Excerpt: The same procedure used above for cross-linked triglycerides was used, except that 1-octadecene was used instead of Canola Oil.

[3] = Surface tension and critical micelle concentration (Wilhelmy plate); assay type: physicochemical
Protocol: B) Surface Tension and Critical Micelle Concentration (CMC) Measurement. For this test the surface tension of a surfactant-water solution is measured while incrementally adding the surfactant to de-ionized water. Results are measured in terms of dyne/centimeters using a Wilhelmy plate. Results are recorded versus surfactant concentration. The Critical Micelle Concentration is the point at which an increase in surfactant concentration no longer results in a change in surface tension.

[4] = Ross-Miles foam height test (ASTM D1173); assay type: physicochemical; conditions: for Ross Miles Foam Height, millimeters, Initial: Initial (0 sec)
Protocol: A) Ross-Miles Foam Height Test: This test is carried out according to the protocol of ASTM […].

[5] = Gel range in water at 23 C; assay type: physicochemical; parameters: key: L = Liquid; G = Gel; TL = Thick Liquid
Protocol: One way the industry expresses a tendency of a surfactant to cause gels is a “gel range.” A typical gel range describes a percentage of samples that form gels, out of a number of samples, each having increasing surfactant concentration. […] A sample forms a gel when it is non-pourable for at least five seconds at 23° centigrade (° C.) when its container is inverted 180° so the container's open spout or mouth faces down. For many applications, a surfactant ideally has no gel range.
D) Gel range: Ten surfactant solutions are made using 0%, 10%, 20%, 30%, 40%, 50%, 60%, 70%, 80%, 90% water. […] The test is run at 23 C.

[6] = Cleaning of cross-linked triglycerides (Gardner scrubber, soiled vinyl tile); parameters: key to Arbitrary Gray Value: mean gray value of tile image (ImageJ); conditions: 120 back-and-forth strokes, higher = better cleaning
Protocol: Test panels coated with mixtures of triglycerides and cross-linked triglycerides were prepared and evaluated using the following procedure. Cobalt Naphthenate was used as a catalyst to accelerate the oxidation of vegetable oil to give a hard varnish. Carbon black is added to the varnish to enable easy visual comparison of the ability to clean the cross-linked triglyceride from the surface.
Substrate Panels: White Vinyl Floor Tile: Tarket Corporation Azrock™ VS304-3 (6913) cut to 4¼×4¼ inch (to fit the Gardner Linear Motion Scrubber).
Soil Formulation: 100 grams Canola Oil (Food Grade, 100%, Kroger Co. Cincinnati, Ohio 45202); 2 grams Acetylene Carbon Black (Cat #39724, Alfa Aesar; Surface area=74 sq m/g); 20 grams drying agent: Cobalt Naphthenate Solution (Aldrich Cat #54,457-4, CAS #61789-51-3) (Comes as a 6% solution in petroleum solvent); Oven: Convection oven set at 160° F.
Scrubbing Tester: Gardco washability & Wear Tester; Linear Motion Test Equipment; Model D12-V Cat #WA-2164 (Paul N. Gardner Company, Inc. 316 N.E. First Street, Pompano, Beach, Fla. 33060.
Sponges: “Do-It” Cellulose Sponge, 1⅝ in thick, cut to 3″×4″. Manufactured by Bloch/New England for HWI, Fort Wayne, Ind. 46801;
Paint Brushes: Economy Chip Brush 1 Inch. www.lgsourcing.com Model #0106; Item #103407 obtained from Lowes, Inc. L. G. Sourcing, Inc. P.O. Box 1535 North Wilkseboro, N.C. 28659
Reflectance Meter: HunterLab ColorQuest XE
Prepare a stock solution by mixing 98 grams of canola oil (food grade) with 2.0 g acetylene-based carbon black (Cat #39724, Alfa Aesar; Surface area=74 sq m/g). Mix with a disperser at 2000 rpm for 15 min. (We used a Caframo Model BDC 3030 with a 0.50 dispersing blade).
Add 20.0 grams Cobalt Naphthenate Solution and mix well (by hand, using a glass stir rod).
Place 1.6 grams soil per 4×4 inch tile.
Paint to a thin film using a clean 1-inch economy brush. Use several strokes to get to an even coating. Use a clean, dry brush for each application. (After the application, each brush can be cleaned with acetone, dried, and then re-used).
Place in a convection oven set at 160 F for 16 hours. We place the panels in an oven at 4:00 p.m, and then remove the panels at 8:00 a.m. the next morning. Let the panels cool for 1 hour.
Use the panels within 10 days
Place a panel in the Gardner Scrubber
[…] (We use 5.0 grams surfactant diluted to 500 mL water).
Prepare a sponge by rinsing several times in cold tap water. Completely squeeze out the sponge by hand.
After each test, rinse out the sponge 15-20 times (by repeated sorption and squeezing) until there is no noticeable surfactant solution left (usually indicated by a lack of foam).
Pour 500 mL of surfactant solution into a beaker
Place the sponge into the beaker—allowing it to soak up as much surfactant as possible.
Place the sponge into the Gardner Scrubber.
Pour the remaining liquid (approx 400 mL) over the test panel in the scrubber. There should be enough liquid to just cover the test panel.
Program the scrubber to perform 120 back-and-forth strokes (for a total of 240 linear strokes). We define each back-and-forth stroke as “1 stroke”
Remove the panel rinse with tap water
Clean the Gardner scrubber by rinsing with tap water.
Clean the sponge by squeezing it out under tap water 20-30 times until clean.
Remove excess water from the sponge by squeezing as much liquid out as possible.
After the panel is dry, either take pictures (for visual comparison of cleaning) or measure the reflectance using the Xyy mode of a Hunter Colorimeter. Alternatively, the mean gray value can be obtained by taking a picture of the tiles and processing computer image with ImageJ™ software, which is distributed freely by the National Institute of Health (nih.gov).

[7] = background statement on commercial surfactants; cited from earlier work
[8] = Formula stability with LAS, sodium citrate and water; assay type: physicochemical; parameters: key to Formula stability: S = Stable; U = Unstable
Excerpt: When mixed with dodecyl benzene sulfonic acid (sodium salt), and sodium citrate in water, the surfactants of the present invention show enhanced formula stability relative to conventional surfactants.

2EH(PO)5.5(EO)8 [Example 3]
Pour Point [1]: 44 ° F. | Arbitrary Gray Value [2]: 136 | cleaning of cross-linked 1-octadecene / mineral oil (in words) ([2]; compared with Tergitol NP-9): equivalent to Tergitol NP-9 | Surface Tension ([3]; 0.1 wt % in water): 31 dyne/centimeters | Critical Micelle Concentration ([3]; in de-ionized water): 1750 ppm | Ross Miles Foam Height, millimeters, 5 Minutes [4]: 0 millimeters | Ross Miles Foam Height, millimeters, Initial [4]: 45 millimeters | Gel Range, Percent Surfactant in Water at 23 C. ([5]; 10% surfactant in water): L | Gel Range, Percent Surfactant in Water at 23 C. ([5]; 20% surfactant in water): L | Gel Range, Percent Surfactant in Water at 23 C. ([5]; 30% surfactant in water): L | Gel Range, Percent Surfactant in Water at 23 C. ([5]; 40% surfactant in water): L | Gel Range, Percent Surfactant in Water at 23 C. ([5]; 50% surfactant in water): L | Gel Range, Percent Surfactant in Water at 23 C. ([5]; 60% surfactant in water): L | Gel Range, Percent Surfactant in Water at 23 C. ([5]; 70% surfactant in water): L | Gel Range, Percent Surfactant in Water at 23 C. ([5]; 80% surfactant in water): TL | Gel Range, Percent Surfactant in Water at 23 C. ([5]; 90% surfactant in water): L

nonylphenoxy (polyoxyethylene-9) [NP-9, reference compound]
Pour Point [1]: 30 ° F. | Arbitrary Gray Value [2]: 95 | Arbitrary Gray Value ([6]; 0.5% by weight in water): 108 | Arbitrary Gray Value ([6]; 1% by weight in water): 177 | gel formation / gel range when mixed with water (in words) [7]: forms resilient, slow-dissolving gels | Ross Miles Foam Height, millimeters, 5 Minutes [4]: 35 millimeters | Ross Miles Foam Height, millimeters, Initial [4]: 145 millimeters | Gel Range, Percent Surfactant in Water at 23 C. ([5]; 10% surfactant in water): L | Gel Range, Percent Surfactant in Water at 23 C. ([5]; 20% surfactant in water): L | Gel Range, Percent Surfactant in Water at 23 C. ([5]; 30% surfactant in water): L | Gel Range, Percent Surfactant in Water at 23 C. ([5]; 40% surfactant in water): L | Gel Range, Percent Surfactant in Water at 23 C. ([5]; 50% surfactant in water): L | Gel Range, Percent Surfactant in Water at 23 C. ([5]; 60% surfactant in water): G | Gel Range, Percent Surfactant in Water at 23 C. ([5]; 70% surfactant in water): G | Gel Range, Percent Surfactant in Water at 23 C. ([5]; 80% surfactant in water): G | Gel Range, Percent Surfactant in Water at 23 C. ([5]; 90% surfactant in water): L | Formula stability ([8]; 15% LAS/0% Na Cit in water): U | Formula stability ([8]; 15% LAS/1% Na Cit in water): U | Formula stability ([8]; 15% LAS/2% Na Cit in water): U | Formula stability ([8]; 15% LAS/4% Na Cit in water): U
